Where no end group is shown, it is not given here.
Key:
[1] = tested on: mammalian central nervous system; experiment: Relative potency in the mammalian central nervous system; assay type: in vivo
[2] = tested on: HPA axis; experiment: Effect of central (intracerebroventricular) GLP-1 on the HPA axis, plasma ACTH and corticosterone by RIA; assay type: in vivo, rats
Description: Central GLP1 effects on the HPA axis were assayed as described in Kinzig et al. (2003) J. Neuroscience 21:6163-6170, herein incorporated by reference in its entirety). Ten male Long-Evans rats (275-350 gm) were housed individually in plastic tub cages with a 12 hour light/dark cycle. […] Catheters were made of sterile SILASTIC tubing, the distal end beveled, a small piece sterile suture tied at 4 cm from the distal end, and filled with heparinized saline. The catheter was attached to a 1 ml syringe filled with heparinized saline at the end that remained at the head. Under ketamine ([…], i.p.) and xylazine (1.5 mg/kg i.p.) anesthesia, the rat's abdomen and top of the head were shaved. A midline incision (approx. 8 cm in length) was made beginning at the sternum. An additional incision was made on the skull. The catheter was subcutaneously from the skull incision to the muscle wall lining the intraperitoneal cavity with a pair of straight hemostats. The muscle wall underlying the abdominal skin incision was opened. A small incision was made in the right muscle wall, through which the catheter was pulled into the intraperitoneal cavity. […] The vein was then punctured with a 21 gauge needle, and the catheter was quickly inserted to the 4 cm mark. Heparinized saline (0.5 ml) was slowly pushed through the inserted catheter. One suture was made in the dorsal muscle wall immediately to the right of the insertion site. […]
Ten days after surgery, cannula placement was verified by administering angiotensin II through the cannula (intracerebroventricular, (i3vt)). Catheter patency was also determined 10 days after surgery. […]
Plasma was extracted and subsequently assayed (RIA) for ACTH and corticosterone (CORT). Results from one such experiment are presented in FIG. 1, panels A and B. Results were analyzed by two-way ANOVA and Tukey's HSD test.
Plasma ACTH and corticosterone concentrations were determined using ^125I-labeled rat ACTH and corticosterone kits according to manufacturers' instructions. […]

[3] = tested on: HPA axis; experiment: Peripheral (intraperitoneal) GLP-1 effects on the HPA axis; assay type: in vivo, rats; conditions: peripheral administration of GLP-1
Description: Plasma ACTH and corticosterone concentrations were determined using ^125I-labeled rat ACTH and corticosterone kits according to manufacturers' instructions. The limits of detection for each kit are 15 pg/ml and 8 ng/ml, respectively. For both ACTH and corticosterone assays, all plasma samples were run in duplicate in single assays.
An additional group of six rats was prepared as described in example 1 to test the effects of peripheral administration of GLP-1 on ACTH and corticosterone (CORT) release. Using a within-subjects design, rats were administered saline and 10, 100, and 500 μg/kg GLP-1 intraperitoneally. Each rat received each treatment in a randomized manner, with no less than 5 days between treatments.

Substance | potency relative to GLP-1(7-36) amide [1] | activation of the HPA axis, dose compared with dose required to decrease food intake ([2]; GLP-1 acting in the CNS) | activity of the HPA axis ([2]; central administration of GLP-1) | stress response ([2]; in vivo) | activity of the HPA axis [3]
exendin 4: GLP-1 receptor agonist | at least 20 times |  |  |  | 
GLP-1: post-translational product of preproglucagon; ligand of the GLP-1 receptor (HAEGTFTSDVSSYLEGQAAKEFIAWLVKGR; ends and bridges not checked; UniProt P01275 98-127, looked up) |  | potent activation of the HPA axis at doses lower than that required to decrease food intake | excites the HPA axis | increases the stress response | does not

Source: patent US7378385B2, “Role for GLP-1 to mediate responses to disparate stressors” (University of Cincinnati, priority 2002, dated 2008)
